# Source: patent US8337835B2, “Use of an endogenous ligand for peroxisome proliferator activated receptor alpha to treat liver disorders” (priority 2009, dated 2012)
# Biological target: T1, ΔDBD-PPARα (Mus musculus, UniProt P23204, C119A/C122A)
# T1 construct: expressed in transfected cells; host or cells: liver of chow-fed WT mice on a PPARα null background, infected with AdFLAG-ΔDBD PPARα adenovirus
# T1 sequence (P23204 1-468 C119A/C122A): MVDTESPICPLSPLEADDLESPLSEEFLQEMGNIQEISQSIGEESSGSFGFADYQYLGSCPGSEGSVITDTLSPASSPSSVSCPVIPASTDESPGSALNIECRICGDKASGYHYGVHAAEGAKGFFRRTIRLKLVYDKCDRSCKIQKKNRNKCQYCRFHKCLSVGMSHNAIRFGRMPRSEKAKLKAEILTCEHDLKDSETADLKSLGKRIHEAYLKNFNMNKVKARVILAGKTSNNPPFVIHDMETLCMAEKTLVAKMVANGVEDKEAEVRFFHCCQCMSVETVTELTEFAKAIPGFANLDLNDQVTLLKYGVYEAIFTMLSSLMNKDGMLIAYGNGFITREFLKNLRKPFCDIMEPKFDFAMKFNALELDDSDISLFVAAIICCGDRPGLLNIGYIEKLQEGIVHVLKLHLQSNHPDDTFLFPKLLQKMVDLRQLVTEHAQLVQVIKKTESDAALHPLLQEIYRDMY
# Assay: In vivo competitive inhibition with PPARα having a defective DNA binding domain
# Details: 50 μg/g intraperitoneal; chow fed WT mice on PPARα null background with AdFLAG-ΔDBD PPARα; 0-60 min
# Source text: Adenovirus encoding both FLAG®-tagged wild type mouse PPARα and a GFP marker, and an adenovirus encoding GFP alone were gifts from T. C. Leone and D. P. Kelly. The AdPPARα virus is known to result in expression of a protein that transactivates PPARα target genes (Bernal-Mizrachi et al., 2003; Tordjman et al., 2002). The DNA binding domain (DBD) mutant of PPARα was generated by mutating the two highly conserved cysteine residues (Shi et al., 2002) to alanine (C119A, C122A) using site-directed mutagenesis (QuikChange® kit, Stratagene). The DBD mutant was subcloned into the pCMV-TAG1 vector (Stratagene) to acquire a FLAG® tag, then shuttled into pAdTrack-CMV vector encoding a GFP marker and recombined with Ad-Easy1 vector. The pAdTrack-CMV and pAdEasy-1 vectors were gifts from the laboratory of B. Vogelstein. […]
# To address the concern that lipid loss could represent Wy14,643-accelerated metabolism as opposed to displacement of the ligand, 1-palmitoyl-2-oleoyl-sn-glycerol-3-phosphocholine (16:0/18:1-GPC) from its binding site on PPARα, an in vivo competitive inhibition experiment using a PPARα molecule with a defective DNA binding domain (see FIG. 5A) was employed. […] Quantification of the relative abundance of the m/z 766 ion in response to Wy14,643 administration in WT mice on a PPARα null background injected with AdFLAG-^ΔDBD PPARα adenovirus is shown in FIG. 5M. […]
structure (smiles),measurement,value
"Cc1cccc(Nc2cc(Cl)nc(SCC(=O)O)n2)c1C [Wy14,643, 4-Chloro-6-(2,3-xylidino)-2-pyrimidinylthioacetic acid]",displacement of m/z 766 (16:0/18:1-GPC) from ΔDBD-PPARα,competed away from ΔDBD-PPARα within minutes
